In patent US20240317826A1, “COMPOSITIONS AND METHODS FOR TREATING AND/OR I[…] AGENT FOR TREATING HIV-1 INFECTIONS” (priority 2021, published 2024):
Entries after “also recorded” stand apart in the source; their conditions may differ.

Tested on: HIV-1 virions
Assay: Infectivity in CEM-GFP cells of virions produced in the presence of stapled peptides
Format: cell-based
Conditions: virions from 293T cells, 5 ng p24, infection of CEM-GFP cells in the absence of stapled peptides; GFP and p24
Protocol: FIG. 11A and FIG. 11B show infectivity of virions in CEM GFP cells produced in 293T cells that were treated with various stapled peptide (at 5 μM concentration) or DMSO. Equal amounts of virions treated with stapled peptides were used to infect CEM-GFP cells and the infected cells were imaged on days 1, 3, 6, 9 and 12 (FIG. 11A) and subjected to p24 ALphaLisa (FIG. 11B). FIG. 11C and FIG. 11D show Infectivity of the virions produced in the presence of increasing concentrations of stapled peptide during production in 293T cells. The 293T cells transfected with pNL4-3 were treated with increasing concentrations of stapled peptides and equal amount of virions from these cells were used to infect CEM-GFP cells. The infected cells were imaged on day 6 (FIG. 11C) and subjected to p24 ALphaLisa (FIG. 11D).
To determine the infectivity of virions produced in the presence of DMSO (DMSO-V), SP-38 (SP38-V), SP-80 (SP80-V) and SP83-D225G (SP83-V), we used equal amounts (5 ng p24) of virions to infect CEM-GFP cells in the absence of stapled peptides (FIGS. 11a and c). […] Replication of the virus was monitored by GFP expression in […] and also by assaying for the production of p24 in the culture supernatants (FIGS. 11a-d).

## lys-Leu-Met-Thr-Pro-Glu-Met-Phe-S5-Glu-Ile-Leu-S5-Cys-Asp-Leu-Asn [SP38]
  infectivity of virions produced in the presence of peptide: defective for infection; also recorded: produced non-infection virions
